This note sets out measurements from US9474759B2 (priority 2011, dated 2016).

Data set [1] deals with FIPV-1146. Nature of the data set: FIPV-1146 replication in CRFK cells, TCID50 method. The following applies: MOI 0.05, mean ± SEM. Format: cell-based, feline coronavirus. How it is done: (§1) Crandell Rees feline kidney (CRFK) cells were maintained in minimal essential medium containing 2-5% fetal bovine serum and antibiotics (chlortetracycline [25 μg/ml], penicillin [250 U/ml], and streptomycin [250 μg/ml]). FIPV WSU 79-1146 and FECV WSU 79-1683 strains are the prototypes of serotype II FIPV or FECV, respectively, and were purchased from ATCC (Manassas, Va.).
(§2) The cells were further incubated in the presence of each compound for 1 hr at 37° C. Then […] or FECV-1683 was inoculated to the cells at a multiplicity of infection (MOI) of 0.05 or 5.
(§3) b. TCID50 Method. A standard TCID50 method with the 10-fold dilution of each sample was used for virus titration.

Data set [2] relates to FIPV-1146. In words: Combination treatment of CA074-Me and GC373 on FIPV-1146 replication, MacSynergy II. The data set is classed as cell-based, feline coronavirus. The note with it: CA074-Me alone at 1, FIPV-infected CRFK cells. How it is done: The CRFK cells were incubated with GC373 (0.02˜0.2 μM), CA074-Me (0.5˜5 μM), or the combinations of GC373 (0.02˜0.2 μM) and CA074-Me (0.5˜5 μM) for 1 hr at 37° C. prior to inoculation of FIPV-1146 at an MOI of 0.05. After 24 hrs of incubation, virus replication was assessed with virus titration using the TCID50 method. Drug-drug interactions were analyzed by the three-dimensional model of Prichard and Shipman, using the MacSynergy II software at 95% confidence limits. Theoretical additive interactions were calculated from the dose-response curve for each compound individually, and the calculated additive surface was subtracted from the experimentally determined dose-response surface to give regions of synergistic or antagonistic interactions. The resulting surface appears as horizontal plane at 0% of synergy if the interactions of two compounds are additive. Any peak above or below this plane indicates synergy or antagonism, respectively.

The test system of data set [3] is FECV-1683. In words: FECV-1683 replication in CRFK cells, TCID50 method. The data set is classed as cell-based, feline coronavirus. The following applies: MOI 0.05, mean ± SEM. How it is done: as §1, §2, §3
The test system of data set [4] is norovirus (cell-based replicon system). In words: Cell-based replicon system of norovirus (Example 4). (In general: A replicon is a self-replicating genome or part of one, used to study replication in cells.)
Data set [5] has as its target Norwalk virus 3CL protease (NV3CL protease), recombinant (Norovirus, UniProt Q83883). In words: Recombinant NV protease FRET inhibition assay (Edans-[…]-Dabcyl substrate), FIG. 4. Format: biochemical. The note with it: 2.5 μM enzyme, 300 nM Edans-EPDFHLQGPEDLAK-Dabcyl, 30 min incubation, 30° C., pH 8.0. How it is done:
(§4) After a 30 minute incubation period, 5 μL of 12 μM Edans-[…]-Dabcyl (SEQ ID NO:1) substrate in DMSO was then added and the increase in fluorescence was monitored for 30 minutes at an excitation and emission wavelength of 360 and 460 nm, respectively. Using a HORIBA FluoroMax 4 spectrofluorometer. Hydrolysis curves were linear. The final enzyme and substrate concentrations were 2.5 μM and 300 nM, respectively. […] Furthermore, the nature of the cap was also important (compare, for example, inhibitors A and D).

In data set [6] the target is Norwalk virus 3CL protease (Norovirus, UniProt Q83883). In words: Recombinant NV protease fluorogenic substrate inhibition assay (Example 1). The note with it: 30 min pre-incubation, 30° C., pH 8.0. The data set is classed as biochemical. How it is done: as §4
Chain of Norwalk virus 3CL protease (Q83883 1101-1281): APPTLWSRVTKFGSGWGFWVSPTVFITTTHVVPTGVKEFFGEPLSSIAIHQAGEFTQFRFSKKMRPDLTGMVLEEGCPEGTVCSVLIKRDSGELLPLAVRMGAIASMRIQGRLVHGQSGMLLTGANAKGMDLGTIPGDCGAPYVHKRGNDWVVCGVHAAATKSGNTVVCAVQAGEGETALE
In data set [7] the test system is norovirus (NV replicon-harboring HG23 cells). In words: NV replicon-harboring cells (HG23), NV genome levels by qRT-PCR (Example 1). The note with it: read-out: ED50, effective dose that inhibits 50% of norovirus replication, NV genome levels at 24 hrs post-treatment. Format: cell-based, Norwalk virus.
In data set [8] the test system is HG23 cells. The following applies: human.
Data set [9] relates to murine norovirus-1 (MNV-1). In words: MNV-1 replication in RAW267.4 cells, TCID50 (Example 1). Format: cell-based. The note with it: Norwalk virus, MOI 2, TCID50 assay, read-out: ED50, replication of murine norovirus (MNV).
Data set [10] concerns MNV-1. In words: Cell culture system, MNV-1 replication in RAW267.4 cells (Example 3). The data set is classed as cell-based, murine norovirus. The following applies: at concentrations up to 50 μM or 100 μM.
The test system of data set [11] is FCV. In words: Cell culture system, FCV replication in CRFK cells (Example 3). The data set is classed as cell-based, feline calicivirus. The following applies: at concentrations up to 50 μM or 100 μM.
In data set [12] the test system is coronavirus proteases (TGEV and SARS-CoV). Format: biochemical. The note with it: optimized FRET assay.
Data set [13] deals with cells used for virus replication. In words: Non-specific cytotoxicity in the cells used for virus replication (Example 3). The data set is classed as cell-based. How it is done:
Confluent cells grown in 96-well plates were treated with various concentrations (1 to 500 μM) of each compound for 72 h. Cell cytotoxicity was measured by a CytoTox 96® nonradioactive cytotoxicity assay kit (Promega, Madison, Wis.) and crystal violet staining. The In vitro therapeutic index was calculated by dividing the TD50 by the IC50.

Data set [14] concerns MHV. Nature of the data set: Cell culture system, MHV replication in CCL-9.1 cells (Example 3). The note with it: at concentrations up to 50 μM or 100 μM. The data set is classed as cell-based, mouse hepatitis virus.
The mark [15] stands for this setting: 24 hr post infection, read-out: Inhibition [ED50 (μM)] against FIPV-1146, 24 hrs.
The mark [16] stands for this setting: 48 hr post infection, read-out: Inhibition [ED50 (μM)] against FIPV-1146, 48 hrs.
Setting [17] is: 24 hr post infection, read-out: Inhibition [ED50 (μM)] against FECV-1683, 24 hrs.
The mark [18] stands for this setting: 48 hr post infection, read-out: Inhibition [ED50 (μM)] against FECV-1683, 48 hrs.

Molecules are shown by their SMILES. Read-outs that look alike come from different tables or passages of the source.

Chain of Norwalk virus 3CL protease (NV3CL protease), recombinant (Q83883 1101-1281): as above

Turning to `CCCNC(=O)[C@H]1O[C@@H]1C(=O)N[C@H](C(=O)N1CCC[C@H]1C(=O)OC)[C@@H](C)CC` (relative stereo) [CA074-Me, L-3-trans-((propylcarbamyl)oxirane-2-Carbonyl)-L-isoleucyl-L-proline methyl ester, reference compound], the EC50 in data set [1] (setting [15]) is 2.5 ± 1.4 µM; in [1] (setting [16]) it was greater than 10 µM; in data set [3] (setting [17]) it was 4 ± 0.71 µM; in [3] (setting [18]) it was greater than 10 µM. In addition, the “reduction of virus titers” value in data set [2] is listed as 0.5 log10.
On to `CCOC(=O)[C@H]1O[C@@H]1C(=O)N[C@@H](CC(C)C)C(=O)NCCC(C)C` (relative stereo) [Inhibitor E64d, (2S,3S)-trans-epoxysuccinyl-L-leucylamido-3-methylbutane ethyl ester, reference compound], for which the EC50 in data set [1] (setting [15]) is 1.45 ± 0.49 µM; in [1] (setting [16]) it was greater than 10 µM; in data set [3] (setting [17]), 2.3 ± 0.28 µM; in data set [3] (setting [18]), greater than 10 µM.
In the case of `CC(C)C[C@H](NC(=O)OCc1ccccc1)C(=O)N[C@@H](CC1CCNC1=O)C(O)C(=O)NC(C)C` (stereo partly drawn) [Inhibitor 5a], the “anti-norovirus activity in the cell-based replicon system (in words)” value in data set [4] is reported as “noteworthy activity”.
Still for that read-out and setting: next, `CC(C)NC(=O)C(O)[C@H](CC1CCNC1=O)NC(=O)[C@H](Cc1ccccc1)NC(=O)OCc1ccccc1` (stereo partly drawn) [Inhibitor 5h]: “noteworthy activity”.
As to `CC(C)C[C@H](NC(=O)OCc1ccccc1)C(=O)N[C@@H](CC1CCNC1=O)C(O)c1nccs1` (stereo partly drawn) [Inhibitor 7b], the “anti-norovirus activity in the cell-based replicon system (in words)” value in [4] is “noteworthy activity”.
As for `CC(C)C[C@H](NC(=O)OCc1ccccc1)C(=O)N[C@@H](CC1CCNC1=O)C(=O)c1ncco1` (stereo partly drawn) [Inhibitor 8a], the EC50 in data set [4] (read-out: ED50 in the cell-based replicon system) turned out to be 0.9 µM.
Consider `CC(C)C[C@H](NC(=O)N1CCOCC1)C(=O)N[C@H](C=O)CC1CCNC1=O` (stereo partly drawn) [Inhibitor A], for which the IC50 in data set [5] amounted to 7.2 µM.
Take `CC(C)C[C@H](NC(=O)CNC(=O)OCc1ccccc1)C(=O)N[C@H](C=O)CC1CCNC1=O` (stereo partly drawn) [Inhibitor E]: the “inhibitory activity against Norwalk virus 3CL protease (in words)” value (from here on “inhibitory activity”) in [6] is on record as “improved potency, albeit not dramatically”. Moreover, the EC50 in data set [7] turned out to be 7.8 µM; in [9] it was 20.3 µM. In [8], the “TD50, median toxic dose” value was greater than 320 µM. The IC50 in [5] amounted to 1.45 µM.
On to `CCCC[C@H](NC(=O)CNC(=O)OCc1ccccc1)C(=O)N[C@H](C=O)CC1CCNC1=O` (stereo partly drawn) [Inhibitor G], for which, in data set [6], the “inhibitory activity” value is “sub-micromolar inhibitor”. Moreover, the IC50 in [5] is 0.87 µM.
On to `CCC(C)[C@H](NC(=O)CNC(=O)OCc1ccccc1)C(=O)N[C@H](C=O)CC1CCNC1=O` (stereo partly drawn) [Inhibitor I], for which the “inhibitory activity” value in data set [6] was “detrimental to inhibitory activity”.
With `CCOC(=O)/C=C/[C@H](C[C@@H]1CCNC1=O)NC(=O)[C@@H](CC(=O)[C@@H](NC(=O)c1cc(C)on1)C(C)C)Cc1ccc(F)cc1` [Rupintrivir], the “inhibition of replication of MNV-1 (in words)” value in data set [10] was “did not inhibit the replication”. Also, the “inhibition of replication of FCV (in words)” value in [11] is on record as “did not inhibit the replication”. In data set [12], the “activity against the coronavirus proteases compared to GC373 and GC376 (in words)” value is reported as “substantially less effective”. Moreover, the “non-specific cytotoxicity: none shown up to this concentration” value in [13] is greater than 500 µM. The “inhibition of replication of MHV (in words)” value in [14] is listed as “did not inhibit the replication”.

The term IC50 denotes the concentration needed to halve the response being measured.
